In patent US6555586B2 (Wyeth, priority 1993, dated 2003):

What was measured:
[1] = system: obesity in non-depressed outpatients; experiment: Obesity Reduction Test: randomized double-blind comparison of venlafaxine and placebo capsules; format: in vivo, humans
Protocol: A randomized double-blind comparison of venlafaxine and placebo capsules was tested as a treatment for obesity in non-depressed outpatients. […] Each participant in the comparison weighed more than 20%, but less than 100%, above the mean value for sex, height and bone structure according to the 1983 Metropolitan Height and Weight Table. The women in the comparison of childbearing potential received a negative pregnancy test result and agreed to use medically acceptable forms of contraception throughout the period covered by the comparison.
Subsequently the dose was increased from 50 mg/day to 150 mg/day through study day 14. On study day 15 the dose was increased to 225 mg/day (3 tablets 3 times a day) and this dose was continued for the remainder of the 70 day study. The patients in both groups were also given instructions to decrease their food intake by 20% and to increase their exercise by the same amount. These directives were given to standardize dietary instructions and to try to prevent patients from starting “crash” diets or exercise programs. A specific diet was not prescribed.
Comparisons within groups were performed on changes from baseline weight and body mass index. Body mass index was computed according to the following formula: [formula]

[2] = system: norepinephrine uptake; settings: cited from earlier work
[3] = system: monoamine oxidase; settings: cited from earlier work
[4] = system: histaminergic receptors; settings: in vitro; cited from earlier work
[5] = system: dopamine reuptake; settings: relative to serotonin and norepinephrine uptake; cited from earlier work
[6] = system: adrenergic receptors; settings: in vitro; cited from earlier work

In the case of `COc1ccc(C(CN(C)C)C2(O)CCCCC2)cc1` (centres unmarked) [venlafaxine, 1-[2-(dimethylamino)-1-(4-methoxyphenyl)ethyl] cyclohexanol], the “mean weight decreases and mean percent decreases from baseline, significance” value ([1]; beginning at week 1) is reported as “consistent statistically significant mean weight decreases and mean percent decreases from baseline beginning at week 1”, the “mean percent decrease from baseline (body weight)” value ([1]; week 10, venlafaxine up to 225 mg/day) is reported as 3.6% and the “mean decrease in body weight” value ([1]; week 10, venlafaxine up to 225 mg/day, change from baseline) is reported as 7.5 lb. The “inhibition of norepinephrine uptake” value [2] was “potent inhibition”, the “inhibitory activity on monoamine oxidase” value [3] was “no inhibitory activity” and the “affinity for histaminergic receptors” value [4] was “virtually no affinity”. For the same compound, the “inhibition of dopamine reuptake” value [5] was “To a lesser degree, venlafaxine also inhibits dopamine reuptake” and the “affinity for adrenergic receptors” value [6] was “virtually no affinity”.
